Molecular target: NTS1R (Homo sapiens, UniProt P30989)
Assay: Radiochemical saturation binding, adherent HT-29 cells
Details: 23 °C
Method: Binding of both ligands, [^3H]13 and [^3H]18, was studied at adherent and suspended intact CHO-hNTS1R cells, and binding of [^3H]13 was additionally studied using CHO-hNTS1R cell membrane preparations (saturation and competition binding, kinetic studies). Furthermore, saturation binding experiments were performed with both ligands at intact adherent HT-29 cells. All experiments were performed in triplicate except for dissociation experiments performed with suspended cells in 50 mL flacon tubes (performed in duplicate). To reduce radioligand consumption in the aforementioned experiments, [^3H]13 and [^3H]18 were 1:1 diluted with 13 and 18, respectively (for the purpose of easier reading these mixtures are denoted "[^3H]13" and "[^3H]18"in the following). All samples were incubated at 23 ± 1 °C in the dark under gentle shaking (incubation times are outlined below). DPBS1 served as binding buffer throughout. In the case of experiments performed with cell suspensions, CHO-hNTS1R cells were seeded in T75 culture flasks 3–4 days prior to the experiment. […] The plates were sealed with transparent sealing tape (Greiner EASYseal, part no. 676001, Greiner Bio-One) and shaken in the dark overnight before measurement of the radioactivity (dpm) using a MicroBeta2 plate counter equipped with six pairs of photomultiplier tubes (PerkinElmer). […]

Sequence of NTS1R (P30989 whole entry): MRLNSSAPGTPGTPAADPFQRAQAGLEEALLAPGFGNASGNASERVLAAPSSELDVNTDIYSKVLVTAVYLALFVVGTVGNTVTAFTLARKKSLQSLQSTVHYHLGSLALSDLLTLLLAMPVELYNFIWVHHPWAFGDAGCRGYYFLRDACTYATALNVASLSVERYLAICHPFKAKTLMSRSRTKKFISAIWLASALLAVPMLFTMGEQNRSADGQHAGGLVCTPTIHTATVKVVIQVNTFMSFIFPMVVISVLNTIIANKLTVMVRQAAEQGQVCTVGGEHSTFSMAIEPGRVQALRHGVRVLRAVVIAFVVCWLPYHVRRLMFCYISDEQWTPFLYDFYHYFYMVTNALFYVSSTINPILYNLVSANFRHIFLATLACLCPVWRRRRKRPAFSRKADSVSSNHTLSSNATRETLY

## CCC(=O)NCCCCNC(=O)NC(=N)NCCC[C@H](NC(=O)[C@@H]1CCCN1C(=O)[C@@H](NC(=O)CCc1cn(CCCNC(=O)c2ccc(-c3c4ccc(=[N+](C)C)cc-4oc4cc(N(C)C)ccc34)c(C(=O)[O-])c2)nn1)C1CCNCC1)C(=O)N[C@@H](CCCNC(=N)N)C(=O)N1CCC[C@H]1C(=O)N[C@@H](Cc1ccc(O)cc1)C(=O)N[C@H](C(=O)N[C@@H](CC(C)C)C(=O)O)[C@@H](C)CC [[^3H]13]
  Kd: 1.2 ± 0.1 nM

Source: publication PMC11440508, “Dually Labeled Neurotensin NTS1R Ligands for Probing Radiochemical and Fluorescence-Based Binding Assays” (Journal of Medicinal Chemistry, 2024)
